“Also recorded” adds a separate entry of the source.
What was measured:
[1] = system: WRL 68 (human epithelial hepatocytes); test: MTT cytotoxicity assay, normal WRL 68; format: cell-based; details: WRL68, normal cell line, 72 h treatment, mean ± SD, read-out: EC50 Values (µM) of Compounds on Cell Lines WRL-68
Protocol: (§1) Cell viability was determined by the MTT [3-(4,5-dimethylthiazol-2-yl)-2,5-diphenyltetrazolium bromide] assay, as previously described by Mosmann with modifications. Briefly, cells were detached from the tissue culture flask and pelleted by centrifugation at 1000 rpm for 5 min. Then, the density of the viable cells was counted using a haemocytometer. Cells were then plated in a 96-well flat bottom micro-titer plate (Nunc) at a concentration of 10^4 cells/mL and incubated in a 5% CO2 incubator at 37 °C overnight to allow the cells to adhere to the bottom of the wells. After 24 h, the media was aspirated off and replaced with fresh media containing sample compounds (curcumin and curcumin analogues) of seven different concentrations ranging from 1.56 µM–100 µM and incubated at 37 °C, 5% CO2 for 72 h. Separately, the sample compounds were prepared in a stock solution of 50 mM in 100% dimethyl sulfoxide (DMSO, Molecular Biology Grade, Sigma-Aldrich, St. Louis, MO, USA) and diluted in the culture media to a working concentration of 200 µM. Curcumin, the parent compound which was used as the positive control was also prepared in the similar manner. A two-fold serial dilution was done for each sample in triplicates down the columns of the plate, yielding a final volume and concentration of 100 µL in 0.2% DMSO in each wells. Following treatment, 50 µL MTT solutions (0.5 mg/mL in PBS) was added to each well and incubated for another 4 h at 37 °C in a humidified 5% CO2 incubator. The supernatant was replaced with 100 µL of DMSO and the optical density (OD) was measured at 570/650 nm using a micro-plate ELISA reader (Bio-Rad Laboratories, Hercules, CA, USA). The percentage of viable cells was calculated based on the ratio of the corrected absorbance of sample-treated cells to the corrected absorbance of the control (0.2% DMSO-treated cells) multiplied by 100. The percentage of cell viability was determined as follows: % Cell viability= OD of treated cells /OD of control ×100
(§2) For each compound tested, the EC50 value was generated from the log dose-response curves for each cell line using the Graphpad Prism version 5.04 for Windows (Graphpad Software, La Jolla, CA, USA). […] Cytotoxicity of each tested compound is expressed as the EC50 value. Based on the EC50 values, selectivity index (SX) value was also determined. Selectivity index is a special parameter applied as a selectivity indicator of tested compounds towards cancer cells. The SX represents the ratio of EC50 value obtained in toxicity testing using the normal cell lines to the EC50 values of the toxicity testing of the cancer cells, and then multiplied by 100. All the compounds were assessed for their potential toxicity against normal, non-cancerous cells. […] The SX values were calculated using the following equation: SX = EC50 (normal cells)/EC50 (cancer cells) × 100

PC-3 cells [2] = test: MTT cytotoxicity (cell viability) assay, PC-3; format: cell-based, human
Protocol: as §1, §2

[3] = system: caspase-3 activity in DU 145 cells; test: Caspase-3 colorimetric activity assay, DU 145; format: cell-based, human
Protocol: Caspase-3 activity was determined using the caspase-3 colorimetric assay kit (Sigma-Aldrich) according to manufacturer’s protocol. The assay is based on spectrophotometric detection of p-nitroanilide (pNA) a colored molecule, after its cleavage from the labeled substrate DEVD-pNA by the activity of caspase-3 enzyme. PC-3 and DU 145 cells were treated with MS17 at different concentrations (EC50, 2 × EC50, 3 × EC50) at various time points, 6, 12, 24, 48 and 72 h as appropriate. Following treatment, cells were washed with PBS and suspended with lysis buffer (50 mM HEPES, pH 7.4, 5 mM CHAPS, 5 mM DTT) for 30 min on ice at the concentration of 10^7 cells per 100 µL buffer. Cells were then spun for 30 min at 16,000× g, 4 °C. Protein lysate concentrations were measured based on the Bradford assay method using the Cayman Chemical protein determination kit (Cayman Chemical Company, Ann Arbor, MI, USA) based on the manufacturer’s protocol. Assay was performed on a 96-well micro-titer plate by adding equal amount of protein lysate (~100 µg) into wells containing the assay buffer (20 mM HEPES pH 7.4, 0.1% CHAPS, 5 mM DTT, 2 mM EDTA). Reaction was started by the addition of 10 µL of substrate Ac-DEVD-pNA (2 mM). The effect of Ac-DEVD-CHO, a caspase-3 inhibitor was also studied simultaneously on caspase-3 activity. Ten microliter of the inhibitor (200 µM) was added into the wells containing the protein lysate, assay buffer and the substrate. Caspase-3 activity was measured upon the release of pNA molecule, a pale yellow colored product using the micro-plate ELISA reader (Bio-Rad) at the wavelength of 405 nm. Relative caspase-3 activity was expressed as absorbance of enzyme activity compared with the control (untreated cells/DMSO only) based on the equation below: Relative caspase 3 activity= Absorbance of treated cells /Absorbance of control

DU 145 cells = test: BrdU cell proliferation assay, DU 145; format: cell-based, human; details: DU 145, BrdU
Protocol: (§3) The anti-proliferative effects of compound on treated cells, was measured using the BrdU cell proliferation assay kit (Roche Applied Science Diagnostics, Indianapolis, IN, USA) according to the manufacturer’s protocol. The assay was based on incorporation of BrdU during DNA synthesis in proliferating cells. Cells were plated at a concentration of 10^4 cells/mL in a 96-well microtiter plate and incubated overnight. The cells were treated with compounds and curcumin (concentrations ranging from 1.56 µM–100 µM) as positive control for 24, 48 and 72 h respectively. Then, BrdU labeling solution (5 µL, diluted by 1/100 in culture media) was added to each well and incubated for 2 h at 37 °C. The media was replaced with fix/denaturing solution (100 µL) and incubated for 30 min at room temperature. Then, the fix/denaturing solution was removed by tapping off and followed by addition of 50 µL anti-BrdU antibody (50 µL, diluted by 1/100 in dilution buffer) to each well and further incubated for another 90 min at room temperature. Next, the cells were washed 3 times with wash buffer and substrate solution (50 µL) was added to each well. The plate was left for 10 min at room temperature in the dark and the absorbance was measured at a wavelength of 370 nm with a reference wavelength of 492 nm using a micro-plate ELISA reader (Bio-Rad). The percentage of BrdU incorporation was determined based on the ratio of absorbance of sample treated-cells to absorbance of control (untreated cells/DMSO only) multiplied by 100.

PC-3 cells [4] = test: BrdU cell proliferation assay, PC-3; format: cell-based, human; details: PC-3, BrdU
Protocol: as §3

With `O=C(C=Cc1ccccc1O)C=Cc1ccccc1O` [MS17, 1,5-bis(2-hydroxyphenyl)-1,4-pentadiene-3-one] the EC50 [1] was 5.5 ± 0.5 µM, the EC50 (PC-3 cells [2]; Homo sapiens, PC-3, MTT, 72 h treatment, mean ± SD, three experiments, read-out: EC50 Values (µM) of Compounds on Cell Lines PC-3) was 4.4 ± 0.3 µM and the “dose from which decrease in cell viability is significant” value (PC-3 cells [2]; PC-3, MTT, vs untreated) was 3.1 µM. For the same molecule, the “Selective index (SX) WI-38 vs PC-3” value (PC-3 cells [2]; SX = EC50 (WI-38)/EC50 (PC-3) × 100) was 117.4, the “Selective index (SX) WRL68 vs PC-3” value (PC-3 cells [2]; SX = EC50 (WRL68)/EC50 (PC-3) × 100) was 124.9 and the “relative caspase-3 activity, differences between concentrations” value ([3]; DU 145, 6, 24, 48 and 72 h) was “no significant differences of caspase-3 activity”. The “relative caspase-3 activity (treated vs untreated)” value ([3]; DU 145, 12 h, significant at 8.4 and 12.6 µM compared to 4.2 µM) was “increased significantly; also recorded: increase in caspase-3 activity”, the “concentration from which anti-proliferative activity is significant” value (DU 145 cells; 24 h) was 6.3 µM and the “concentration from which anti-proliferative activity is significant” value (DU 145 cells; 48 h) was 6.3 µM. The “concentration from which anti-proliferative activity is significant” value (DU 145 cells; 72 h) was 12.5 µM, the “concentration from which anti-proliferative activity is significant” value (PC-3 cells [4]; 24 h) was 6.3 µM and the “concentration from which anti-proliferative activity is significant” value (PC-3 cells [4]; 48 h) was 12.5 µM. The “concentration from which anti-proliferative activity is significant” value (PC-3 cells [4]; 72 h) was 12.5 µM.

— article PMC6272399, “Anti-Proliferative Effect and Induction of Apoptosis in Androgen-Independent Human Prostate Cancer Cells by 1,5-Bis(2-hydroxyphenyl)-1,4-pentadiene-3-one” (Molecules, 2015)
